Test results taken from PubChem BioAssay (NCI).
Values after ≈ are worked out from the molar mass of the structure shown.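 Briefly, cells in 96-well plates were exposed to five compound concentrations for 48 h, and endpoints were estimated by linear interpolation. Here, GI50 denotes the concentration required for 50% inhibition of growth. The concentration for full growth arrest is given as TGI.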

Key:
Assay in all cases: DTP human tumour cell line panel, 48 h
CCRF-CEM leukemia = system: CCRF-CEM leukemia
SNB-19 CNS = system: SNB-19 CNS
NCI-H23 lung = system: NCI-H23 lung
TK-10 renal = system: TK-10 renal
KM12 colon = system: KM12 colon
OVCAR-4 ovarian = system: OVCAR-4 ovarian
COLO 205 colon = system: COLO 205 colon
SW-620 colon = system: SW-620 colon
HCT-15 colon = system: HCT-15 colon
M14 melanoma = system: M14 melanoma

Row | SMILES | GI50 (CCRF-CEM leukemia) [µg/mL] | TGI (CCRF-CEM leukemia) | GI50 (SNB-19 CNS) [µg/mL] | TGI (SNB-19 CNS) | GI50 (NCI-H23 lung) [µg/mL] | TGI (NCI-H23 lung) | GI50 (TK-10 renal) [µg/mL] | TGI (TK-10 renal) | GI50 (KM12 colon) [µg/mL] | TGI (KM12 colon) | GI50 (OVCAR-4 ovarian) [µg/mL] | TGI (OVCAR-4 ovarian) | GI50 (COLO 205 colon) [µg/mL] | TGI (COLO 205 colon) | GI50 (SW-620 colon) [µg/mL] | TGI (SW-620 colon) | GI50 (HCT-15 colon) [µg/mL] | TGI (HCT-15 colon) | GI50 (M14 melanoma) [µg/mL] | TGI (M14 melanoma)
1 | O=C1NN(C2=NNC3(C(=O)N2)c2ccccc2-c2ccccc23)C(c2ccccc2)=N/C1=C/c1ccc(Cl)cc1 | 52.6 (≈ 96.5 µM) | > 150 µg/mL | 28.3 (≈ 52 µM) | 59.9 µg/mL | 34.9 (≈ 64.1 µM) | > 150 µg/mL | 50.5 (≈ 92.6 µM) | 132 µg/mL | 33.4 (≈ 61.3 µM) | 96.2 µg/mL | 62.8 (≈ 115 µM) | > 150 µg/mL | 69.2 (≈ 127 µM) | > 150 µg/mL | 52.8 (≈ 96.9 µM) | > 150 µg/mL | 54.1 (≈ 99.3 µM) | > 150 µg/mL | 59.8 (≈ 110 µM) | > 150 µg/mL
2 | CCOC(=O)c1csc(NC(=O)C(C)N2CCCC2)n1 (stereo not given) |  | > 100 µM |  | > 100 µM |  | > 100 µM |  | > 100 µM |  | > 100 µM |  | > 100 µM |  | > 100 µM |  | > 100 µM |  | > 100 µM |  | > 100 µM
3 | COC(=O)C(Cc1cn(C(C)n2cc(CC(NC(C)=O)C(=O)OC)c3ccccc32)c2ccccc12)NC(C)=O (stereo not given) |  | > 100 µM |  | > 100 µM |  | > 100 µM |  | > 100 µM |  | > 100 µM |  | > 100 µM |  | > 100 µM |  | > 100 µM |  | > 100 µM |  | > 100 µM
